Values quoted from earlier work in patent US20080268034A1, “Solid Oral Dosage Forms of Ziprasidone Containing Colloidal Silicone Dioxide” (priority 2005, published 2008).

In the case of `O=C1Cc2cc(CCN3CCN(c4nsc5ccccc45)CC3)c(Cl)cc2N1` [Ziprasidone free base, 5-[2-[4-(1,2-benzisothiazol-3-yl)-1-piperazinyl]ethyl]-6-chloro-1,3-dihydro-2H-indol-2-one], the solubility is listed as “very poor solubility”.
